{
  "source": "patent US20140213567A1",
  "about": "“TAZOBACTAM ARGININE ANTIBIOTIC COMPOSITIONS” (Cubist Pharmaceuticals, Inc., priority 2012, published 2014)",
  "experiment": "Hygroscopicity of solid form",
  "assay_type": "physicochemical",
  "settings": "relative to amorphous tazobactam arginine and amorphous tazobactam sodium",
  "data": [
    {"smiles": "C[C@]1(Cn2ccnn2)[C@H](C(=O)O)N2C(=O)CC2S1(=O)=O", "note": "(stereo partly shown) [Tazobactam arginine polymorph Ia, Tazobactam Arginine]", "values": [
      {"measurement": "hygroscopicity", "value": "low hygroscopicity"}
    ]}
  ]
}
